What was measured:
B-Raf V600E = B-Raf V600E (Homo sapiens (Human), UniProt P15056, V600E); assay: B-Raf V600E kinase biochemical activity assay (AlphaScreen, biotin-MEK1 substrate); conditions: 100 μM ATP
Procedure, shortened: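 B-Raf V600E (0.1 ng) phosphorylated 100 nM biotin-MEK1 with 100 μM ATP (final) in HEPES pH 7.0 with Mg2+/Mn2+ for 45 min at room temperature. Compounds were tested over an 8-point serial dilution. Phospho-MEK1/2 was detected by AlphaScreen after 3 h with beads, and IC50 came from signal versus concentration.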

[1] = test system: COLO205 colon adenocarcinoma cells (B-Raf V600E mutation); assay: COLO205 cell growth inhibition (ATPlite); assay type: cell-based; conditions: Homo sapiens, COLO 205, 72 h, 3 days
Procedure, shortened: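 Cells treated for 3 days at 37 °C, 5% CO2 with an 8-point 1:3 dilution series, top final concentration 10 μM, DMSO control. ATPlite luminescence used as a measure of cell number; IC50 from reading versus concentration.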

B-Raf V600E, sequence (P15056 whole entry V600E): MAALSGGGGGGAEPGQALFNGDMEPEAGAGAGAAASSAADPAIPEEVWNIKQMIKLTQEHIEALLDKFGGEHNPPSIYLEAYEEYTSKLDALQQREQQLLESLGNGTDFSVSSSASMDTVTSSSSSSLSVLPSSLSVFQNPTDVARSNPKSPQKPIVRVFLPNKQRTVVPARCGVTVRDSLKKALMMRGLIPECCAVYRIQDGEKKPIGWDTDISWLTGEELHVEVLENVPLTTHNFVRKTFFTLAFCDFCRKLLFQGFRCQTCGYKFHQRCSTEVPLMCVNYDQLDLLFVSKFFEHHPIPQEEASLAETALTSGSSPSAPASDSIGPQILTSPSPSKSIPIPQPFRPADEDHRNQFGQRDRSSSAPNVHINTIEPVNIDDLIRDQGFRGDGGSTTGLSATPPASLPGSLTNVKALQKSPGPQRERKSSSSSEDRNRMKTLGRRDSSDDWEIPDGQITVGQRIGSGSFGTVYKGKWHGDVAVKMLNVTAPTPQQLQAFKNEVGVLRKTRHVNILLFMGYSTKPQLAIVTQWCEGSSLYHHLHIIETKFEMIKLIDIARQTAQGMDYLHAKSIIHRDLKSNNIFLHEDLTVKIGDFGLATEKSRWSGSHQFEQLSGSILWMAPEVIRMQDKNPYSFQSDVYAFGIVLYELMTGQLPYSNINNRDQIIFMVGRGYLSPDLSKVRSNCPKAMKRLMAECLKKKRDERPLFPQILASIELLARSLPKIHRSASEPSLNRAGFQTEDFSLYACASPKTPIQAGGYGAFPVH

IC50 (B-Raf V600E)	IC50 [1]	Structure (SMILES)
< 0.1 µM	< 1 µM	CCN(C)S(=O)(=O)Nc1ccc(F)c(C(=O)c2c[nH]c3ncc(-c4ccc5nc(N(C)C)ncc5c4)cc23)c1F [Compound P-0313, 2-(dimethylamino)-6-[3-[3-1[[ethyl(methyl)sulfamoyl]amino]-2,6-difluoro-benzoyl]-1H-pyrrolo[2,3-b]pyridin-5-yl]quinazoline]
< 0.1 µM	< 1 µM	CCN(C)S(=O)(=O)Nc1ccc(F)c(C(=O)c2c[nH]c3ncc(-c4ccc(C5(O)CC5)cc4)cc23)c1F [Compound P-0314, 3-[3-1[[ethyl(methyl)sulfamoyl]amino]-2,6-difluoro-benzoyl]-5-[4-(1-hydroxycyclopropyl)phenyl]-1H-pyrrolo[2,3-b]pyridine]
< 0.1 µM	< 1 µM	CCN(C)S(=O)(=O)Nc1ccc(F)c(C(=O)c2c[nH]c3ncc(-c4cncs4)cc23)c1F [Compound P-0315, 5-[3-[3-[[ethyl(methyl)sulfamoyl]amino]-2,6-difluoro-benzoyl]-1H-pyrrolo[2,3-b]pyridin-5-yl]thiazole]
< 0.1 µM	< 1 µM	CCN(C)S(=O)(=O)Nc1ccc(F)c(C(=O)c2c[nH]c3ncc(-c4csc(C(C)(C)O)n4)cc23)c1F [Compound P-0316, 4-[3-[3-[[ethyl(methyl)sulfamoyl]amino]-2,6-difluoro-benzoyl]-1H-pyrrolo[2,3-b]pyridin-5-yl]-2-(1-hydroxy-1-methyl-ethyl)thiazole]
< 0.1 µM	< 1 µM	CCN(C)S(=O)(=O)Nc1ccc(F)c(C(=O)c2c[nH]c3ncc(-c4ccc(OC)nn4)cc23)c1F [Compound P-0317, 3-[3-[[ethyl(methyl)sulfamoyl]amino]-2,6-difluoro-benzoyl]-5-(6-methoxypyridazin-3-yl)-1H-pyrrolo[2,3-b]pyridine]
< 0.1 µM	< 1 µM	O=C(c1c(F)ccc(NS(=O)(=O)N2CCCC2)c1F)c1c[nH]c2ncc(-c3cc(N4CCOCC4)ncn3)cc12 [Compound P-0318, N-[2,4-difluoro-3-[5-(6-morpholinopyrimidin-4-yl)-1H-pyrrolo[2,3-b]pyridine-3-carbonyl]phenyl]pyrrolidine-1-sulfonamide]
< 0.1 µM	< 1 µM	O=C(c1cccc(NS(=O)(=O)N2CCCC2)c1F)c1c[nH]c2ncc(-c3cc(N4CCOCC4)ncn3)cc12 [Compound P-0321, N-[2-fluoro-3-[5-(6-morpholinopyrimidin-4-yl)-1H-pyrrolo[2,3-b]pyridine-3-carbonyl]phenyl]pyrrolidine-1-sulfonamide]
< 0.1 µM	< 1 µM	CN1CCN(c2cc(-c3cnc4[nH]cc(C(=O)c5cccc(NS(=O)(=O)N6CCCC6)c5F)c4c3)ncn2)CC1 [Compound P-0322, N-[2-fluoro-3-[5-[6-(4-methylpiperazin-1-yl)pyrimidin-4-yl]-1H-pyrrolo[2,3-b]pyridine-3-carbonyl]phenyl]pyrrolidine-1-sulfonamide]
< 0.1 µM	< 1 µM	CN1CCN(c2cccc(-c3cnc4[nH]cc(C(=O)c5cccc(NS(=O)(=O)N6CCCC6)c5F)c4c3)n2)CC1 [Compound P-0324, N-[2-fluoro-3-[5-[6-(4-methylpiperazin-1-yl)-2-pyridyl]-1H-pyrrolo[2,3-b]pyridine-3-carbonyl]phenyl]pyrrolidine-1-sulfonamide]
< 0.1 µM	> 1 µM	COc1ccnc(-c2cnc3[nH]cc(C(=O)c4cccc(NS(=O)(=O)N5CCCC5)c4F)c3c2)n1 [Compound P-0325, N-[2-fluoro-3-[5-(4-methoxypyrimidin-2-yl)-1H-pyrrolo[2,3-b]pyridine-3-carbonyl]phenyl]pyrrolidine-1-sulfonamide]
< 0.1 µM	> 1 µM	Cc1ccnc(-c2cnc3[nH]cc(C(=O)c4cccc(NS(=O)(=O)N5CCCC5)c4F)c3c2)n1 [Compound P-0326, N-[2-fluoro-3-[5-(4-methylpyrimidin-2-yl)-1H-pyrrolo[2,3-b]pyridine-3-carbonyl]phenyl]pyrrolidine-1-sulfonamide]
< 0.1 µM	< 1 µM	O=C(c1cccc(NS(=O)(=O)N2CC[C@@H](F)C2)c1F)c1c[nH]c2ncc(-c3cnc(C4CC4)nc3)cc12 [Compound P-0327, (3R)—N-[3-[5-(2-cyclopropylpyrimidin-5-yl)-1H-pyrrolo[2,3-b]pyridine-3-carbonyl]-2-fluoro-phenyl]-3-fluoro-pyrrolidine-1-sulfonamide]
< 0.1 µM	< 1 µM	CCNS(=O)(=O)Nc1ccc(F)c(C(=O)c2c[nH]c3ncc(-c4cnc(C5CC5)nc4)cc23)c1F [Compound P-0335, [5-(2-cyclopropylpyrimidin-5-yl)-1H-pyrrolo[2,3-b]pyridin-3-yl]-[3-(ethylsulfamoylamino)-2,6-difluoro-phenyl]methanone]
< 0.1 µM	> 1 µM	CCC(C)S(=O)(=O)Nc1ccc(F)c(C(=O)c2c[nH]c3ncc(-c4ccc(Cl)cc4)cc23)c1F (stereo not shown) [Compound P-0337, N-[3-[5-(4-chlorophenyl)-1H-pyrrolo[2,3-b]pyridine-3-carbonyl]-2,4-difluoro-phenyl]butane-2-sulfonamide]
< 0.1 µM	< 1 µM	O=C(c1c(F)ccc(NS(=O)(=O)N2CC[C@@H](F)C2)c1F)c1c[nH]c2ncc(-c3cnc(C4CC4)nc3)cc12 [Compound P-0338, (3R)—N-[3-[5-(2-cyclopropylpyrimidin-5-yl)-1H-pyrrolo[2,3-b]pyridine-3-carbonyl]-2,4-difluoro-phenyl]-3-fluoro-pyrrolidine-1-sulfonamide]
< 0.1 µM	< 1 µM	O=C(c1c(F)ccc(NS(=O)(=O)N2CCC(F)C2)c1F)c1c[nH]c2ncc(-c3cnc(C4CC4)nc3)cc12 (stereo not shown) [Compound P-0339, N-[3-[5-(2-cyclopropylpyrimidin-5-yl)-1H-pyrrolo[2,3-b]pyridine-3-carbonyl]-2,4-difluoro-phenyl]-3-fluoro-pyrrolidine-1-sulfonamide]
< 0.1 µM	< 1 µM	CN(CC(F)(F)F)S(=O)(=O)Nc1ccc(F)c(C(=O)c2c[nH]c3ncc(-c4cnc(C5CC5)nc4)cc23)c1F [Compound P-0340, 5-(2-cyclopropylpyrimidin-5-yl)-3-[2,6-difluoro-3-[[methyl(2,2,2-trifluoroethyl)sulfamoyl]amino]benzoyl]-1H-pyrrolo[2,3-b]pyridine]
